Results: US10517889B2, “Modulators of SMAD7 expression” (Ionis Pharmaceuticals, Inc., priority 2017, dated 2019)
Strand notation (5' to 3'): a small letter for the sugar, then the base; units joined by * are phosphorothioate-linked, units joined directly phosphodiester-linked; [ ] holds rarer units or linkages, { } end groups; capitals alone tell only the bases. k = constrained ethyl (cEt); [5mC] = 5-methylcytosine; d = 2'-deoxy (DNA)

System: human SMAD7 mRNA
Experiment: Antisense inhibition of human SMAD7 mRNA expression in Hep3B cells by 3-10-3 cEt gapmers, 10,000 nM, electroporation (Example 2)
Assay type: cell-based
Settings: Hep3B cells, 10,000 nM antisense oligonucleotide, electroporation, approximately 24 hours, RT-PCR primer probe set RTS5062, relative to untreated control cells
Outline: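 SMAD7 mRNA was measured by real-time PCR (RTS5062) with RiboGreen total-RNA normalization, about 24 h after 10,000 nM gapmer was delivered by electroporation into Hep3B cells at 20,000 per well. Gapmers were 16-mer 3-10-3 cEt, fully phosphorothioate; values are % inhibition versus untreated controls.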

First: 799952 (antisense k[5mC]*kT*k[5mC]*dT*dA*dA*dG*dT*dG*dG*d[5mC]*dT*d[5mC]*kA*kT*kG) [compound 799952]
Second: 799910 (antisense k[5mC]*k[5mC]*kA*dA*d[5mC]*dT*d[5mC]*d[5mC]*dA*dT*dT*d[5mC]*dA*kT*kA*kA) [compound 799910]
The “% Inhibition” value of the first is lower: 30% for the first, 36% for the second.

“799873 (kA*kA*kA*dA*dG*dT*dT*dA*dA*dT*d[5mC]*dA*dT*kT*kA*k[5mC]; antisense) [compound 799873]” was tested, and the “% Inhibition” value was 0%.

Same assay, conditions: Hep3B cells, electroporation with 10,000 nM antisense oligonucleotide, approximately 24 hours, RTS5062, percent inhibition of SMAD7 mRNA relative to untreated control cells

Compared with “799548 (k[5mC]*kT*k[5mC]*d[5mC]*dT*dA*d[5mC]*dT*dG*dT*dT*dG*dG*k[5mC]*kA*kG; antisense) [compound 799548]”, “799552 (kA*kG*kG*dG*dA*dA*d[5mC]*dA*dA*dT*dT*dA*d[5mC]*kA*kG*k[5mC]; antisense) [compound 799552]” is higher in “% Inhibition” value: 39% for the first, 58% for the second.

Compared with “799274 (antisense kT*kT*kA*dA*dT*d[5mC]*dA*dT*dT*dA*d[5mC]*dT*d[5mC]*kG*kA*kG) [compound 799274]”, “799277 (antisense k[5mC]*kT*k[5mC]*d[5mC]*dG*dG*dG*d[5mC]*dA*dG*d[5mC]*d[5mC]*dA*kG*kT*kT) [compound 799277]” is lower in “% Inhibition” value: 24% for the first, 21% for the second.

In the case of “799770 (kG*kT*kT*dT*d[5mC]*d[5mC]*dA*dA*dG*dG*d[5mC]*d[5mC]*dG*kG*k[5mC]*kG; antisense) [compound 799770]”, the “% Inhibition” value is reported as 50%.

Same assay, conditions: Hep3B cells, electroporation with 10,000 nM antisense oligonucleotide, approximately 24 hours, SMAD7 mRNA by RT-PCR (RTS5062), relative to untreated control cells

First: 830199 (antisense kA*kA*kG*dG*d[5mC]*dT*dA*d[5mC]*dA*d[5mC]*d[5mC]*dA*dA*kA*kG*kA) [compound 830199]
Second: 800008 (kG*kA*kA*d[5mC]*dA*dG*dA*d[5mC]*d[5mC]*dA*dG*dA*d[5mC]*k[5mC]*k[5mC]*kT; antisense) [compound 800008]
The “% Inhibition” value of the first is lower: 37% for the first, 40% for the second.

Compared with “800088 (antisense kA*kA*kT*dG*dA*dG*dG*dG*dT*dG*dG*d[5mC]*dT*kT*kG*kG) [compound 800088]”, “830098 (kA*kG*kA*d[5mC]*dA*dA*dA*d[5mC]*d[5mC]*dT*dT*d[5mC]*d[5mC]*kG*kA*kA; antisense) [compound 830098]” is lower in “% Inhibition” value: 54% for the first, 37% for the second.

Going from “830066 (kA*kA*kA*dT*dG*dG*dT*dG*d[5mC]*dT*d[5mC]*dT*dG*k[5mC]*k[5mC]*k[5mC]; antisense) [compound 830066]” to “799337 (kG*kT*k[5mC]*dT*dT*dT*d[5mC]*d[5mC]*dG*dG*dG*dT*dG*k[5mC]*kG*kG; antisense) [compound 799337]”, the “% Inhibition” value falls from 37% to 30%.

First: 800063 (antisense kG*k[5mC]*k[5mC]*dA*dT*dA*d[5mC]*dA*dA*dA*dT*dG*dT*kG*k[5mC]*kA) [compound 800063]
Second: 799254 (antisense kA*kA*kA*d[5mC]*dT*d[5mC]*d[5mC]*dA*dA*dA*dG*dG*dT*kG*k[5mC]*kG) [compound 799254]
The “% Inhibition” value of the first is lower: 0% for the first, 11% for the second.

Going from “798757 (kG*k[5mC]*kG*d[5mC]*dA*dG*dG*d[5mC]*dT*dG*d[5mC]*dG*d[5mC]*kG*k[5mC]*k[5mC]; antisense) [compound 798757]” to “830049 (kG*kT*kT*dT*d[5mC]*d[5mC]*dG*dA*dT*dT*dG*dG*d[5mC]*kA*kG*kG; antisense) [compound 830049]”, the “% Inhibition” value rises from 0% to 43%.

In the case of “799943 (antisense kT*kG*k[5mC]*d[5mC]*d[5mC]*dT*d[5mC]*dT*d[5mC]*dA*dG*dG*dG*kT*k[5mC]*kT) [compound 799943]”, the “% Inhibition” value is reported as 0%.

Same assay, conditions: Hep3B cells, electroporation with 10,000 nM antisense oligonucleotide, approximately 24 hours, primer probe set RTS5062, relative to untreated control cells

Going from “772709 (kT*kA*kA*dA*dG*d[5mC]*dA*dA*dA*dG*dT*dG*d[5mC]*kA*kT*k[5mC]; antisense) [compound 772709]” to “798673 (antisense kG*kG*k[5mC]*d[5mC]*d[5mC]*dG*dG*dG*d[5mC]*dA*dG*dG*dA*kG*k[5mC]*kG) [compound 798673]”, the “% inhibition of SMAD7 mRNA expression” value rises from 0% to 15%.

Compared with “799072 (antisense kG*k[5mC]*kA*dG*dG*dA*dA*dG*dG*dG*dA*dA*dT*kA*kA*kG) [compound 799072]”, “798675 (antisense k[5mC]*kA*kG*dG*d[5mC]*dG*d[5mC]*dA*dG*dG*d[5mC]*dG*dA*k[5mC]*kA*kG) [compound 798675]” is lower in “% inhibition of SMAD7 mRNA expression” value: 55% for the first, 51% for the second.

Compared with “799145 (antisense k[5mC]*kT*kT*dG*dG*dG*dT*dT*dA*dT*dG*dA*d[5mC]*kG*kG*kA) [compound 799145]”, “799213 (kT*kG*kT*dT*dT*dA*dT*dA*d[5mC]*dA*d[5mC]*dA*dT*kT*kG*k[5mC]; antisense) [compound 799213]” is lower in “% inhibition of SMAD7 mRNA expression” value: 46% for the first, 42% for the second.

With “799154 (antisense kA*kG*kA*dG*dT*dT*dA*dG*dG*dT*dG*dT*d[5mC]*kA*kG*k[5mC]) [compound 799154]” the “% Inhibition” value was 39%.

Same assay, conditions: Hep3B cells, electroporation, 10,000 nM antisense oligonucleotide, approximately 24 hours, RTS5062, relative to untreated control cells

Going from “799287 (antisense kT*k[5mC]*kT*dG*d[5mC]*dT*d[5mC]*dA*dG*dG*d[5mC]*dT*dT*k[5mC]*kA*k[5mC]) [compound 799287]” to “799731 (antisense k[5mC]*kT*kT*dT*d[5mC]*dT*dT*dG*dG*dT*dG*dT*dG*kT*kT*kA) [compound 799731]”, the “% inhibition of SMAD7 mRNA expression” value rises from 15% to 37%.

First: 799537 (kG*kG*kG*d[5mC]*dA*d[5mC]*d[5mC]*dA*d[5mC]*dA*dA*dT*dG*kT*k[5mC]*kA; antisense) [compound 799537]
Second: 799681 (antisense kA*k[5mC]*kT*d[5mC]*dA*dT*d[5mC]*d[5mC]*dT*dG*dT*dT*dG*kG*k[5mC]*kA) [compound 799681]
The “% inhibition of SMAD7 mRNA expression” value of the first is lower: 3% for the first, 53% for the second.

Going from “799680 (antisense kG*kA*kG*dT*dT*d[5mC]*dT*dA*dG*dG*d[5mC]*d[5mC]*dG*kT*k[5mC]*kA) [compound 799680]” to “799637 (kG*k[5mC]*kA*d[5mC]*dA*dG*dA*d[5mC]*dT*dG*d[5mC]*d[5mC]*dA*kA*kA*kT; antisense) [compound 799637]”, the “% inhibition of SMAD7 mRNA expression” value rises from 33% to 48%.

Same assay, conditions: SMAD7 mRNA, Hep3B cells, 10,000 nM antisense oligonucleotide, electroporation, approximately 24 hours, primer probe set RTS5062, relative to untreated control cells

Compared with “772733 (kG*kG*kT*dG*dA*dT*dT*dG*d[5mC]*d[5mC]*dT*dT*dG*kA*kT*kA; antisense) [compound 772733]”, “829759 (antisense k[5mC]*k[5mC]*kG*d[5mC]*d[5mC]*dA*d[5mC]*d[5mC]*dG*dG*d[5mC]*d[5mC]*d[5mC]*k[5mC]*kA*kT) [compound 829759]” is higher in “% Inhibition” value: 39% for the first, 51% for the second.

With “772635 (kA*kA*kG*d[5mC]*dT*dG*dA*dT*d[5mC]*dT*dG*d[5mC]*dA*k[5mC]*kG*kG; antisense) [compound 772635]” the “% Inhibition” value was 43%.

Same assay, conditions: SMAD7 mRNA, Hep3B cells, electroporation with 10,000 nM antisense oligonucleotide, approximately 24 hours, primer probe set RTS5062, relative to untreated control cells

Going from “830003 (antisense kG*kG*k[5mC]*dA*dT*dT*d[5mC]*dT*dT*dT*dT*dA*dG*k[5mC]*k[5mC]*k[5mC]) [compound 830003]” to “829891 (antisense kA*kT*k[5mC]*dT*dG*d[5mC]*dA*d[5mC]*dG*dG*dT*dA*dA*kA*kG*k[5mC]) [compound 829891]”, the “% Inhibition” value rises from 0% to 25%.

Going from “829954 (kT*kT*kG*dT*d[5mC]*dA*d[5mC]*d[5mC]*d[5mC]*dG*dT*d[5mC]*dT*kG*kG*kG; antisense) [compound 829954]” to “829948 (k[5mC]*kG*kG*dG*d[5mC]*dA*dG*d[5mC]*d[5mC]*dA*dG*dT*dT*kA*kA*kT; antisense) [compound 829948]”, the “% Inhibition” value falls from 53% to 43%.

In the case of “830006 (antisense kA*k[5mC]*kT*d[5mC]*dA*d[5mC]*d[5mC]*dA*dG*dT*dT*dG*dG*kT*kT*kT) [compound 830006]”, the “% Inhibition” value is reported as 0%.
